Experimental data as given in patent publication US20230381248A1, “METHOD FOR TREATING AND/OR PREVENTING ATOPY AND ALLERGIC DISEASES BY USING BACTERIA OR COMPOSITIONS HAVING 7 ALPHA-DEHYDROXYLASE ACTIVITY, AND/OR BILE ACID RECEPTORS FXR AND/OR TGR5 AGONISTS” (NATIONAL TAIWAN UNIVERSITY HOSPITAL, priority 2022, published 2023).

Columns and labels:
[1] = test system: PMN-MDSC and regulatory T-cell (Treg); test: Induction of immune-regulatory cells by FxR and TGR5 agonist pre-treatment in the OVA allergic airway disease model, flow cytometry; format: in vivo, BALB/c mice; settings: oral gavage 30 mg/kg/day twice a week from 3 w/o; BALF, PB, BM, Spl after aerosol OVA challenge; vs vehicle control
Protocol: (§1) The model uses ovalbumin (OVA) as the allergen to induce allergic airway inflammation of the mice. Briefly, allergen sensitization was induced in 5 w/o BALB/c mice by two intraperitoneal injection (i.p.) of 50 μg ovalbumin (OVA) plus 2 mg alum at 10-14-day interval. One week after the second OVA i.p. sensitization, 30-min aerosol 5% OVA inhalation challenge (ih) was performed for 3 consecutive days.
(§2) OVA-induced allergic airway disease was induced in 5 w/o BALB/c mice according to the protocol as depicted. […] Age- and sex-matched control mice were given the vehicle containing methyl cellulose.
The effects of FXR and TGR5 signaling in inducing both innate and adaptive immune-regulatory cells (i.e., PMN-MDSC and Treg) are investigated in this example. Mice were pre-treated by FxR and TGR5 agonists, followed by allergen sensitization and induction of allergic airway disease as depicted in FIG. 6. […] BALF represents bronchoalveolar lavage fluid, PB represents peripheral blood, BM represents bone marrow, Spl represents spleen. […] FoxP3 is an intracellular specific marker of regulatory T-cell and acts as a major regulator in the development and function of regulatory T-cell. **P<0.01; ***P<0.001, comparison was made by analysis of variance (ANOVA).

[2] = test system: OVA-induced allergic airway disease; test: Severity of OVA-induced allergic airway disease after FxR and TGR5 agonist pre-treatment; format: in vivo, BALB/c mice; settings: oral gavage 30 mg/kg/day twice a week from 3 w/o
Protocol: as §1, §2
The effects of FxR and TGR5 signaling in alleviating the severity of OVA-induced allergic airway disease are investigated in this example Mice were pre-treated by FxR and TGR5 agonists, followed by sensitization and asthmatic response of mice as depicted in FIG. 6. One day after the 3rd aerosol OVA challenge, sera and bronchoalveolar lavage fluids (BALF) were collected and parameters reflecting the severity of allergic inflammation were tested. […] Neg Ctrl represents healthy control. N=12-14 mice/group.

SMILES: CC[C@H]1[C@@H](O)[C@@H]2[C@H](C[C@H](O)[C@]3(C)[C@@H]([C@H](C)C[C@H](C)C(=O)O)CC[C@@H]23)[C@@]2(C)CC[C@@H](O)C[C@@H]12 [TGR5 agonist, 6-EMCA]
- expansion of adaptive immune-regulatory cell, Treg [1]: can induce the expansion
- expansion of innate immune-regulatory cells, PMN-MDSC [1]: can induce the expansion
- four parameters indicative of allergic airway disease severity (seral OVA-specific IgE, BALF leukocyte counts, BALF IL-5, airway resistance to methacholine) ([2]; one day after 3rd aerosol OVA challenge): mitigated
- airway disease severity ([2]; vs control mice receiving vehicle, N=12-14 mice/group): significantly milder airway disease
